Like-named read-outs stand apart in the source and are kept apart here.
Experiments:
S. epidermidis [1] = assay: Static biofilm model, safranine staining; assay type: cell-based; conditions: 6 h incubation, thiophenone 200 μmol/L coating
Description: (§1) According to the static biofilm model, a given thiophenone 200 μmol/L was dissolved in 500 μl absolute ethanol and applied to wells of a standard 24 well microtiter plate. The ethanol was evaporated from the wells in a laminar air sterile work bench at room temperature so as to leave a coating of the thiophenone in the well. A sample of bacteria was then added to the well and incubated for a given period of time. After incubation, the percentage of bacteria remaining was assessed by safranine staining of the biofilm. Bound safranine was released by acetic acid and optical density was measured in Synergy HT Multi-Detection Microplate Reader and compared to a control.

S. epidermidis [2] = assay: Shaking biofilm model (200 rpm), safranine staining; assay type: cell-based; conditions: Staphylococcus epidermidis, read-out: Shaking biofilm model % Remaining
Description: as §1
According to the shaking biofilm model, the microtiter plates were shaken (200 rpm) in a Minitron Incubator Shaker during biofilm formation.

[3] = S. epidermidis, 20 h incubation

Question: CC(=O)O/C=C1/C=CC(=O)S1 [Thio104, (Z)-(5-oxothiophen-2(5H)-ylidene)methyl acetate] was tested. Which “Static biofilm model % Remaining” value (S. epidermidis [1]) did it give?
Answer: The value was 34%.

Question: And the activity at 200 µM (S. epidermidis [2]; 6 h)?
Answer: The activity at 200 µM was 106%.

Question: And the activity at 200 µM (S. epidermidis [2]; 20 h)?
Answer: The activity at 200 µM was 103%.

Question: Which results are given for O=C1C=C/C(=C/Cl)S1 [Thio103, (Z)-5-(chloromethylene) thiophen-2(5H)-one]?
Answer: Static biofilm model % Remaining (S. epidermidis [1]): 32%; activity at 200 µM (S. epidermidis [2]; 6 h): 92%; activity at 200 µM (S. epidermidis [2]; 20 h): 96%

Question: How did the activity at 200 µM (S. epidermidis [2]; S. epidermidis, 6 h incubation) turn out when O=C1C=C/C(=C/c2ccc(Br)s2)S1 [Thio302, (Z)-5-((5-bromothiophen-2-yl)methylene)thiophen-2(5H)-one] was run?
Answer: The activity at 200 µM was 98%.

Question: And the activity at 200 µM (S. epidermidis [2]; [3])?
Answer: Its activity at 200 µM is 101%.

Question: Which results are given for COc1sc(/C=C2/C=CC(=O)S2)c(Br)c1Br [Thio305, (Z)-5-((3,4-dibromo-5-methoxythiophen-2-yl)methylene)thiophen-2(5H)-one]?
Answer: activity at 200 µM (S. epidermidis [2]; S. epidermidis, 6 h incubation): 66%; activity at 200 µM (S. epidermidis [2]; [3]): 101%

Question: For COc1ccc(CC2(CO)C=CC(=O)S2)s1 (centres unmarked) [Thi401, 5-(hydroxymethyl)-5-((5-methoxythiophen-2-yl)methyl)thiophen-2(5H)-one], which “Static biofilm model % Remaining” value (S. epidermidis [1]) is on record?
Answer: The value was 51%.

Question: And the activity at 200 µM (S. epidermidis [2]; S. epidermidis, 6 h incubation)?
Answer: The activity at 200 µM was 80%.

Question: And the activity at 200 µM (S. epidermidis [2]; [3])?
Answer: The activity at 200 µM was 94%.

Question: For O=C1C=C/C(=C\Br)S1 [Thio102, (E)-5-(bromomethylene) thiophen-2(5H)-one], which “Static biofilm model % Remaining” value (S. epidermidis [1]) is on record?
Answer: The value was 95%.

Question: And the activity at 200 µM (S. epidermidis [2]; S. epidermidis, 6 h incubation)?
Answer: The activity at 200 µM was 91%.

Question: What about the activity at 200 µM (S. epidermidis [2]; [3]) of the same compound?
Answer: Its activity at 200 µM is 103%.

Question: What does the source list for COc1ccc(C=O)s1 [Thio201, 5-methoxythiophene-2-carbaldehyde]?
Answer: Static biofilm model % Remaining (S. epidermidis [1]): 56%; activity at 200 µM (S. epidermidis [2]; S. epidermidis, 6 h incubation): 81%; activity at 200 µM (S. epidermidis [2]; [3]): 101%

Question: How did the activity at 200 µM (S. epidermidis [2]; S. epidermidis, 6 h incubation) turn out when O=C1C=C/C(=C/c2ccccc2)S1 [Thio109, (Z)-5-benzylidenethiophen-2(5H)-one] was run?
Answer: Its activity at 200 µM is 98%.

Question: And the activity at 200 µM (S. epidermidis [2]; [3])?
Answer: Its activity at 200 µM is 107%.

Question: Which activity at 200 µM (S. epidermidis [2]; S. epidermidis, 6 h incubation) does the source give for O=C1S/C(=C\c2ccccc2)C=C1Br [Thio110, (Z)-5-benzylidene-3-bromothiophen-2(5H)-one] here?
Answer: The activity at 200 µM was 30%.

Question: What about the activity at 200 µM (S. epidermidis [2]; [3]) of the same compound?
Answer: The activity at 200 µM was 27%.

Question: O=C1C=C/C(=C/c2ccc(-c3cccs3)s2)S1 [Thio306, (Z)-5-(2,2′-bithiophen-5-ylmethylene) thiophen-2(5H)-one] was tested. Which “Static biofilm model % Remaining” value (S. epidermidis [1]) did it give?
Answer: Its value is 67%.

Question: How did the activity at 200 µM (S. epidermidis [2]; S. epidermidis, 6 h incubation) turn out when O=C1C=C/C(=C(\Br)c2ccccc2)S1 [Thio111, (E)-5-(bromo(phenyl)methylene) thiophen-2-(5H)-one] was run?
Answer: The activity at 200 µM was 63%.

Question: What about the activity at 200 µM (S. epidermidis [2]; [3]) of the same compound?
Answer: Its activity at 200 µM is 50%.

Question: With O=C1C=CC(=C(Br)Br)S1 [Thio106, 5-(dibromomethylene)thiophen-2(5H)-one] as the compound, how does the activity at 200 µM (S. epidermidis [2]; S. epidermidis, 6 h incubation) read?
Answer: The activity at 200 µM was 11%.

Question: What about the activity at 200 µM (S. epidermidis [2]; [3]) of the same compound?
Answer: The activity at 200 µM was 27%.

Question: Which activity at 200 µM (S. epidermidis [2]; S. epidermidis, 6 h incubation) does the source give for O=C1C=C/C(=C/c2cccs2)S1 [Thio301, (Z)-5-(thiophen-2-ylmethylene) thiophen-2(5H)-one] here?
Answer: The activity at 200 µM was 80%.

Question: And the activity at 200 µM (S. epidermidis [2]; [3])?
Answer: The activity at 200 µM was 98%.

Question: With COc1ccc(C=C(Br)Br)s1 [Thio202, 2-(2,2-dibromovinyl)-5-methoxythiophene] as the compound, how does the activity at 200 µM (S. epidermidis [2]; S. epidermidis, 6 h incubation) read?
Answer: Its activity at 200 µM is 94%.

Question: And the activity at 200 µM (S. epidermidis [2]; [3])?
Answer: The activity at 200 µM was 103%.

Question: What does the source list for O=C1SC(=C(Br)Br)C=C1Br [Thio108, 3-bromo-5-(dibromomethylene)thiophen-2(5H)-one]?
Answer: activity at 200 µM (S. epidermidis [2]; S. epidermidis, 6 h incubation): 1%; activity at 200 µM (S. epidermidis [2]; [3]): 9%

Question: Which activity at 200 µM (S. epidermidis [2]; S. epidermidis, 6 h incubation) does the source give for O=C1S/C(=C\Br)C=C1Br [Thio105, (Z)-3-bromo-5-(bromomethylene)thiophen-2(5H)-one] here?
Answer: The activity at 200 µM was 20%.

Question: And the activity at 200 µM (S. epidermidis [2]; [3])?
Answer: The activity at 200 µM was 18%.

Question: O=C1C=C/C(=C/C(Br)Br)S1 [Thio107, (Z)-5-(2,2-dibromoethylidene) thiophen-2(5H)-one] was tested. Which activity at 200 µM (S. epidermidis [2]; S. epidermidis, 6 h incubation) did it give?
Answer: Its activity at 200 µM is 77%.

Question: What about the activity at 200 µM (S. epidermidis [2]; [3]) of the same compound?
Answer: The activity at 200 µM was 93%.

Question: O=Cc1ccc(/C=C2/C=CC(=O)S2)s1 [Thio303, (Z)-5-((5-oxothiophen-2(5H)-ylidene)methyl)thiophene-2-carbaldehyde] was tested. Which activity at 200 µM (S. epidermidis [2]; S. epidermidis, 6 h incubation) did it give?
Answer: Its activity at 200 µM is 95%.

Question: What about the activity at 200 µM (S. epidermidis [2]; [3]) of the same compound?
Answer: Its activity at 200 µM is 91%.

Question: With O=C1C=C/C(=C(/Br)c2ccccc2)S1 [Thio112, (Z)-5-(bromo(phenyl)methylene) thiophen-2(5H)-one] as the compound, how does the activity at 200 µM (S. epidermidis [2]; S. epidermidis, 6 h incubation) read?
Answer: The activity at 200 µM was 63%.

Question: And the activity at 200 µM (S. epidermidis [2]; [3])?
Answer: The activity at 200 µM was 59%.

Question: What does the source list for COc1ccc(/C=C2/C=CC(=O)S2)s1 [Thio304, (Z)-5-((5-methoxythiophen-2-yl)methylene)thiophen-2(5H)-one]?
Answer: activity at 200 µM (S. epidermidis [2]; S. epidermidis, 6 h incubation): 72%; activity at 200 µM (S. epidermidis [2]; [3]): 94%
